According to the kinase profiling compilation of Christmann-Franck et al. (2016):

Assays:
Test in all cases: KINOMEscan competition binding
Details in all cases: compound 10.0 µM
TGFBR1 (human) = TGFBR1 (human) (UniProt P36897)
MYLK (human) = MYLK (human) (UniProt Q15746)
STK32B (human) = STK32B (human) (UniProt Q9NY57)
MAPK7 (human) = MAPK7 (human) (UniProt Q13164)
CDK8 (human) = CDK8 (human) (UniProt P49336)
TLK2 (human) = TLK2 (human) (UniProt Q86UE8)
PHKG2 (human) = PHKG2 (human) (UniProt P15735)
PIM2 (human) = PIM2 (human) (UniProt Q9P1W9)
PIM2 (human), sequence (Q9P1W9 whole entry, looked up): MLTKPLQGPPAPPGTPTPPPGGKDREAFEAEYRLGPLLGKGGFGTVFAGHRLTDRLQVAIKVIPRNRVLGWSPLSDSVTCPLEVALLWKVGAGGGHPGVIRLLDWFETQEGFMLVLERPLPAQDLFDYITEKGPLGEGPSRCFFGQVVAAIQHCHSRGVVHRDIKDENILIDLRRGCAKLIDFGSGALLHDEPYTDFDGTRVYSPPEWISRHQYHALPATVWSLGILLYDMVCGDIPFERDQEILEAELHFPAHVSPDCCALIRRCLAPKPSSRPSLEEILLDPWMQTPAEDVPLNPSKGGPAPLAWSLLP

PKMYT1 (human) = PKMYT1 (human) (UniProt Q99640)
PIP5K1A (human) = PIP5K1A (human) (UniProt Q99755)
PIP5K1A (human), sequence (Q99755 whole entry, looked up): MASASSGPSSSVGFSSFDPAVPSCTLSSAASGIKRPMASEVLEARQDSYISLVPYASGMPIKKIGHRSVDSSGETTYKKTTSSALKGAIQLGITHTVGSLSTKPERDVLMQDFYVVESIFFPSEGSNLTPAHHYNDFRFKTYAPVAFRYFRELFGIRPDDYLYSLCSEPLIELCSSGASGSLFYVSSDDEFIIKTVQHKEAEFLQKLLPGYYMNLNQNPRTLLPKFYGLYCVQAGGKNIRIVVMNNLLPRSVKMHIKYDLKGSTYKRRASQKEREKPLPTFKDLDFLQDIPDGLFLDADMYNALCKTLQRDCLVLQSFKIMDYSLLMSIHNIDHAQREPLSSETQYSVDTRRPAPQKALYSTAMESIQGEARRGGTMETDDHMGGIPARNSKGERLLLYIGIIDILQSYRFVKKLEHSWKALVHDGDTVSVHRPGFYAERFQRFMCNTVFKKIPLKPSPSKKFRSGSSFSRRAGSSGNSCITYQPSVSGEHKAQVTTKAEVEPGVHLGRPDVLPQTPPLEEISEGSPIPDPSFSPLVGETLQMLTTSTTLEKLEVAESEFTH

MAP4K3 (human) = MAP4K3 (human) (UniProt Q8IVH8)
PRKD2 (human) = PRKD2 (human) (UniProt Q9BZL6)
STK16 (human) = STK16 (human) (UniProt O75716)
STK16 (human), sequence (O75716 whole entry, looked up): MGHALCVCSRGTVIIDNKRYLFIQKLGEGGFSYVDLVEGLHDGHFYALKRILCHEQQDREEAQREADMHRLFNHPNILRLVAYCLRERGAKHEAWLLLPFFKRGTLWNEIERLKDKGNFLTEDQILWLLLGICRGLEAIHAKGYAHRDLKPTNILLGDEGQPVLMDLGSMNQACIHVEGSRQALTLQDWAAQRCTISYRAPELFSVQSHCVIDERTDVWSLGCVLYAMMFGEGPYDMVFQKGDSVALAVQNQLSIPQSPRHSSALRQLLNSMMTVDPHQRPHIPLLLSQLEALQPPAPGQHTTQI

CLK4 (human) = CLK4 (human) (UniProt Q9HAZ1)
MAPK4 (human) = MAPK4 (human) (UniProt P31152)
PLK1 (human) = PLK1 (human) (UniProt P53350)
BMPR1B (human) = BMPR1B (human) (UniProt O00238)
FER (human) = FER (human) (UniProt P16591)
FGR (human) = FGR (human) (UniProt P09769)
NTRK1 (human) = NTRK1 (human) (UniProt P04629)
TEK (human) = TEK (human) (UniProt Q02763)
TXK (human) = TXK (human) (UniProt P42681)
[1] = system: FLT3 (human), P36888 [N841I]
RET (human) = RET (human) (UniProt P07949)
RET (human), sequence (P07949 whole entry, looked up): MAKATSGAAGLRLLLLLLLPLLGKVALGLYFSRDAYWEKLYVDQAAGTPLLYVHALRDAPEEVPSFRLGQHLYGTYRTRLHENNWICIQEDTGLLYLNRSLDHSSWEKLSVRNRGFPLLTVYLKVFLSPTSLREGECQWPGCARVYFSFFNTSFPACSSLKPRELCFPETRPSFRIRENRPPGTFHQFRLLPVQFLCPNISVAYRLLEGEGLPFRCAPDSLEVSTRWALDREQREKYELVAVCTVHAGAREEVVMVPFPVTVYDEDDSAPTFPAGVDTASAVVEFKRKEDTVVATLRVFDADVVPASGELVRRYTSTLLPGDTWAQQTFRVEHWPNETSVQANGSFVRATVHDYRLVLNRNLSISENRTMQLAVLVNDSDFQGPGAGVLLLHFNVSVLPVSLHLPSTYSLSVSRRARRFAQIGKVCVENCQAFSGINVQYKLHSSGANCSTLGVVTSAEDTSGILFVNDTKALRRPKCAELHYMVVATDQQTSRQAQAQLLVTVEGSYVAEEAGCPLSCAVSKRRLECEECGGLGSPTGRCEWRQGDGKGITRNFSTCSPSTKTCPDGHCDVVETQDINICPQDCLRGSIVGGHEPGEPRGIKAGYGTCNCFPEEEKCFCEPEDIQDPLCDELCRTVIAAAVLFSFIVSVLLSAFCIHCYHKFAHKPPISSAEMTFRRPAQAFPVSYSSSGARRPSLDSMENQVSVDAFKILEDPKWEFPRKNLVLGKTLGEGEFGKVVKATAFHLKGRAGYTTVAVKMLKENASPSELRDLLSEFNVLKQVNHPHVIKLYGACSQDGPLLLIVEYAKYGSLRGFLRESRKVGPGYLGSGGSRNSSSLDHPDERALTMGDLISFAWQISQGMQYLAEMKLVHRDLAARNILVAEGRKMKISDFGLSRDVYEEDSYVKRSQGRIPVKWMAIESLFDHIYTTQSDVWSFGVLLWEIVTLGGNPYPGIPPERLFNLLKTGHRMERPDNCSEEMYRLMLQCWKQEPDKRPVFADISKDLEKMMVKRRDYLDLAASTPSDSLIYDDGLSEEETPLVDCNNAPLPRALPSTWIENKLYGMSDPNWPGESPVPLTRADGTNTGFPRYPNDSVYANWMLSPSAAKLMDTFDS

PRKG1 (human) = PRKG1 (human) (UniProt Q13976)
CDK15 (human) = CDK15 (human) (UniProt Q96Q40)
CHEK2 (human) = CHEK2 (human) (UniProt O96017)
SRMS (human) = SRMS (human) (UniProt Q9H3Y6)
STK32C (human) = STK32C (human) (UniProt Q86UX6)
PDGFRA (human) = PDGFRA (human) (UniProt P16234)
PDGFRA (human), sequence (P16234 whole entry, looked up): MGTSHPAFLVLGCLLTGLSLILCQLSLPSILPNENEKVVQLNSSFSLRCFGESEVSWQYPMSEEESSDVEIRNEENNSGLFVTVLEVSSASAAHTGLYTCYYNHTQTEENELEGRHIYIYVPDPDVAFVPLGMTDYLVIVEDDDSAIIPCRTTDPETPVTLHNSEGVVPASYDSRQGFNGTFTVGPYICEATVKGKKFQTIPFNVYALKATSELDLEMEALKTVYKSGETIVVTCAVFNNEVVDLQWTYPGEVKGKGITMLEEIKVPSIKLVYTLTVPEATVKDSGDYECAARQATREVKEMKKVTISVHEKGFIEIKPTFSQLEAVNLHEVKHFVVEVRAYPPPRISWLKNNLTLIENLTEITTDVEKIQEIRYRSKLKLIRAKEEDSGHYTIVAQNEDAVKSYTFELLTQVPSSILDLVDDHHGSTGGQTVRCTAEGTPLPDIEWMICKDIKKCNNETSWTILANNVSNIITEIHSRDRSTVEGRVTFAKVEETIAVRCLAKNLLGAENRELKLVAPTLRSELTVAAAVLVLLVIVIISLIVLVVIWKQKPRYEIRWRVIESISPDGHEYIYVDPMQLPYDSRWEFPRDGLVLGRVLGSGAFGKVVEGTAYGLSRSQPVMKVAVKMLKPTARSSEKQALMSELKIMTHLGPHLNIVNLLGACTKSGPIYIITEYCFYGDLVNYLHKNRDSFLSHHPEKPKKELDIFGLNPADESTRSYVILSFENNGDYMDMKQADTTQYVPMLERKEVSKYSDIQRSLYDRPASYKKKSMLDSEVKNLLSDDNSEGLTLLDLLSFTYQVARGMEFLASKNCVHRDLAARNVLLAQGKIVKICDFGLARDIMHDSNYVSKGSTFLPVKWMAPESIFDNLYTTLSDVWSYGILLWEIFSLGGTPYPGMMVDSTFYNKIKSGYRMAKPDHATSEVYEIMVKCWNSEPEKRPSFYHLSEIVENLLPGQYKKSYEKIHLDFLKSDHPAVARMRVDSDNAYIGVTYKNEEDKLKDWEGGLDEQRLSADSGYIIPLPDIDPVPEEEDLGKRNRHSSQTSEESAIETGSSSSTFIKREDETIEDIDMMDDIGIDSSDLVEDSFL

NEK5 (human) = NEK5 (human) (UniProt Q6P3R8)
MKNK1 (human) = MKNK1 (human) (UniProt Q9BUB5)
TESK1 (human) = TESK1 (human) (UniProt Q15569)
FLT3 (human) = FLT3 (human) (UniProt P36888)
ADCK4 (human) = ADCK4 (human) (UniProt Q96D53)
ADCK4 (human), sequence (Q96D53 whole entry, looked up): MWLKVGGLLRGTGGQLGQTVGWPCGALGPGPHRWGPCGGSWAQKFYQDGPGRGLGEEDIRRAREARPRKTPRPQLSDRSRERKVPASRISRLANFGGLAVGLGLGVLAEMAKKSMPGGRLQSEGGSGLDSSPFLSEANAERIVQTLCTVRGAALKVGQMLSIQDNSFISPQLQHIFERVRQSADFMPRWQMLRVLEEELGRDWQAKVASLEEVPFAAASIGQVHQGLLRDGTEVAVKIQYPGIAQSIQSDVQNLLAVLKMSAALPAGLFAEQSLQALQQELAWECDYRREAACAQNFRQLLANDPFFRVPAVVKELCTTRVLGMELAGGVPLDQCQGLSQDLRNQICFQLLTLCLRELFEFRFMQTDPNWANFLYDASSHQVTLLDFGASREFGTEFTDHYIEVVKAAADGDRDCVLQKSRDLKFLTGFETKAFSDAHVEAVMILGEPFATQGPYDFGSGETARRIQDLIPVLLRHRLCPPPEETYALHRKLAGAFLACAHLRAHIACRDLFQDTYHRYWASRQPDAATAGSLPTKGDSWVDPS

DAPK3 (human) = DAPK3 (human) (UniProt O43293)
CAMK1G (human) = CAMK1G (human) (UniProt Q96NX5)
CAMK1G (human), sequence (Q96NX5 whole entry, looked up): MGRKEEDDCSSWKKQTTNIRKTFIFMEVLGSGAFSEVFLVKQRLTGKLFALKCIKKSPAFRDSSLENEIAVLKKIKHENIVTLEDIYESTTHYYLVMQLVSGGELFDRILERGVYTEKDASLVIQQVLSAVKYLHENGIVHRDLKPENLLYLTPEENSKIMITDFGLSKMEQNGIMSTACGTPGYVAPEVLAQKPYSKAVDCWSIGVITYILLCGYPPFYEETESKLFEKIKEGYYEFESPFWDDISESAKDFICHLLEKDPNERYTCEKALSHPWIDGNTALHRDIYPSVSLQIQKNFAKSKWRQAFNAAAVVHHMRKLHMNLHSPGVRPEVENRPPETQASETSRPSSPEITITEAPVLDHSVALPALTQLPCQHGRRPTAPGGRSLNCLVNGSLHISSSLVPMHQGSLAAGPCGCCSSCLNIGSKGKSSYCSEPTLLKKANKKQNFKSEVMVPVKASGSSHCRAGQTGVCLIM

MAP2K4 (human) = MAP2K4 (human) (UniProt P45985)
MAP2K1 (human) = MAP2K1 (human) (UniProt Q02750)
LCK (human) = LCK (human) (UniProt P06239)

STK32B (human), sequence (Q9NY57 whole entry, looked up): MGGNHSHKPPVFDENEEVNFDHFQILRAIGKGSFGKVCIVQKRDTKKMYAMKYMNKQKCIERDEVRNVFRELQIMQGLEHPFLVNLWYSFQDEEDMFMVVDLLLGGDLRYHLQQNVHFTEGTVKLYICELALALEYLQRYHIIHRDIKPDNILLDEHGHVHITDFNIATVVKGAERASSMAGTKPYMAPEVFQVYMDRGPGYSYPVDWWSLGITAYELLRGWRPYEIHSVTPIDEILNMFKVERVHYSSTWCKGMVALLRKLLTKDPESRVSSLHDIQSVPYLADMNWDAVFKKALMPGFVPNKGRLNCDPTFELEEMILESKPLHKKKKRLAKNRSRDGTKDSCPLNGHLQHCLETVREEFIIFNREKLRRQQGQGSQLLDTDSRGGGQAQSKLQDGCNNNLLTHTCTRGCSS

COc1cc(N2CCN(C)CC2)ccc1Nc1nc(N)c(C(=O)c2c(Cl)cccc2Cl)s1
kinase still bound, per cent of control (TGFBR1 (human)): 100% | kinase still bound, per cent of control (MYLK (human)): 18% | kinase still bound, per cent of control (STK32B (human)): 76% | kinase still bound, per cent of control (MAPK7 (human)): 14% | kinase still bound, per cent of control (CDK8 (human)): 100% | kinase still bound, per cent of control (TLK2 (human)): 93% | kinase still bound, per cent of control (PHKG2 (human)): 43% | kinase still bound, per cent of control (PIM2 (human)): 100% | kinase still bound, per cent of control (PKMYT1 (human)): 100% | kinase still bound, per cent of control (PIP5K1A (human)): 88% | kinase still bound, per cent of control (MAP4K3 (human)): 100% | kinase still bound, per cent of control (PRKD2 (human)): 78% | kinase still bound, per cent of control (STK16 (human)): 90% | kinase still bound, per cent of control (CLK4 (human)): 50% | kinase still bound, per cent of control (MAPK4 (human)): 90% | kinase still bound, per cent of control (PLK1 (human)): 72% | kinase still bound, per cent of control (BMPR1B (human)): 90% | kinase still bound, per cent of control (FER (human)): 82% | kinase still bound, per cent of control (FGR (human)): 93% | kinase still bound, per cent of control (NTRK1 (human)): 62% | kinase still bound, per cent of control (TEK (human)): 88% | kinase still bound, per cent of control (TXK (human)): 100% | kinase still bound, per cent of control [1]: 47% | kinase still bound, per cent of control (RET (human)): 97% | kinase still bound, per cent of control (PRKG1 (human)): 100% | kinase still bound, per cent of control (CDK15 (human)): 26% | kinase still bound, per cent of control (CHEK2 (human)): 100% | kinase still bound, per cent of control (SRMS (human)): 71% | kinase still bound, per cent of control (STK32C (human)): 99% | kinase still bound, per cent of control (PDGFRA (human)): 84% | kinase still bound, per cent of control (NEK5 (human)): 96% | kinase still bound, per cent of control (MKNK1 (human)): 51% | kinase still bound, per cent of control (TESK1 (human)): 100% | kinase still bound, per cent of control (FLT3 (human)): 96% | kinase still bound, per cent of control (ADCK4 (human)): 81% | kinase still bound, per cent of control (DAPK3 (human)): 78% | kinase still bound, per cent of control (CAMK1G (human)): 42% | kinase still bound, per cent of control (MAP2K4 (human)): 70% | kinase still bound, per cent of control (MAP2K1 (human)): 100% | kinase still bound, per cent of control (LCK (human)): 86%
